Results published in PubChem BioAssay (NCI).
Where “and” joins values, the source holds several entries; their conditions need not be identical. Identical values can stand only once.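 The compound was tested at five concentrations on cells cultured in 96-well plates, with a 48-hour exposure period. Abbreviation: GI50, concentration required for 50% inhibition of growth. Definition used: TGI = concentration required for complete inhibition of growth.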

Tests used:
Assay in all cases: NCI tumour cell line growth inhibition, 48 h
HL-60(TB) leukemia = test system: HL-60(TB) leukemia
MCF7 breast = test system: MCF7 breast
EKVX NSCLC = test system: EKVX NSCLC
HCC-2998 colon = test system: HCC-2998 colon
786-0 renal = test system: 786-0 renal
NCI/ADR-RES ovarian = test system: NCI/ADR-RES ovarian
SF-539 CNS = test system: SF-539 CNS
SW-620 colon = test system: SW-620 colon
SK-MEL-5 melanoma = test system: SK-MEL-5 melanoma
OVCAR-8 ovarian = test system: OVCAR-8 ovarian

Compound | GI50 (HL-60(TB) leukemia) | TGI (HL-60(TB) leukemia) | GI50 (MCF7 breast) | TGI (MCF7 breast) | GI50 (EKVX NSCLC) | TGI (EKVX NSCLC) | GI50 (HCC-2998 colon) | TGI (HCC-2998 colon) | GI50 (786-0 renal) | TGI (786-0 renal) | GI50 (NCI/ADR-RES ovarian) | TGI (NCI/ADR-RES ovarian) | GI50 (SF-539 CNS) | TGI (SF-539 CNS) | GI50 (SW-620 colon) [nM] | TGI (SW-620 colon) | GI50 (SK-MEL-5 melanoma) | TGI (SK-MEL-5 melanoma) [µM] | GI50 (OVCAR-8 ovarian) | TGI (OVCAR-8 ovarian)
O=C(Nc1cc(-c2cccnc2)nc(NCCCN2CCOCC2)n1)c1cc(Br)cc(C(F)(F)F)c1 | 2150 nM | 5.86 µM | 2170 nM | 9.22 µM | 2.72 µM | 14.4 µM | 1770 nM | 3.49 µM | 1.55 µM | 3.17 µM | 2.6 µM | 9.11 µM | 1.67 µM | 3.47 µM | 2250 | 5.48 µM | 1.64 µM | 3.02 | 2.98 µM | 8.59 µM
CCCCCCNC(=O)Oc1ccc(/C(=C(\C)c2ccccc2)c2ccc(OCCN(CC)CC)cc2)cc1 | 524 nM | 5.2 µM | 602 nM | 5.47 µM | 6.02 µM | 12.5 µM | 2330 nM | 8.16 µM | 1.5 µM | 5.33 µM | 5.47 µM | 11.9 µM | 3.47 µM | 9.79 µM | 1300 | 3.26 µM | 3.01 µM | 9.26 | 6.02 µM | 12.9 µM
COc1ccc(-c2c(N)n[nH]c2-c2cc(OC)c(OC)c(OC)c2)cc1 | 47.4 nM | 0.516 µM | 73.2 nM | > 100 µM | 3.86 µM | > 100 µM | 286 nM | 19.8 µM | 0.388 µM | 35.6 µM | 0.2 µM | 2.22 µM | 0.202 µM | 0.865 µM | 58.7 | > 100 µM | 0.113 µM | 10 | 0.424 µM | > 100 µM
O=C(O)C(=O)CBr | 12100 nM and 18900 nM | 46.1 µM and 45.1 µM | > 61400 nM and 29300 nM | > 100 µM and 94.7 µM | > 100 µM and 18.9 µM | > 100 µM and 36.7 µM | > 100000 nM and 19300 nM | > 100 µM and 36.3 µM | 16.9 µM and 21.7 µM | 31.3 µM and 36.5 µM | > 54.6 µM and 20.2 µM | > 94.4 µM and 44 µM | > 41.1 µM and 16.8 µM | > 56.3 µM and 31.5 µM | 6800 | > 35.3 µM and 21.6 µM | > 100 µM and 65.8 µM | > 100 | > 43.4 µM and 19.5 µM | > 59.7 µM and 36.7 µM
COc1ccc(NC(=O)/C=C(C)/C=C/C=C(C)\C=C\C2=C(C)CCCC2(C)C)cc1 | 2130 nM | 16.1 µM | 40300 nM | > 100 µM | 79 µM | > 100 µM | > 100000 nM | > 100 µM | 90.3 µM | > 100 µM | 60.6 µM | > 100 µM | 48.8 µM | > 100 µM | 51600 | > 100 µM | 40.9 µM | > 100 | > 100 µM | > 100 µM
O=C(c1ccccc1)C1C(C(=O)c2ccccc2)C(c2ccccc2)N(c2ccccc2)C1c1ccccc1 (stereo not given) | – | > 100 µM | – | > 100 µM | – | > 100 µM | – | > 100 µM | – | > 100 µM | – | > 100 µM | – | > 100 µM | – | > 100 µM | – | > 100 | – | > 100 µM
N=C(N)SCCc1ccccn1 | – | > 100 µM | – | > 100 µM | – | > 100 µM | – | > 100 µM | – | > 100 µM | – | > 100 µM | – | > 100 µM | – | > 100 µM | – | > 100 | – | > 100 µM
ClCC#CCSc1ncnc2c1ncn2CC#CCCl | 1990 nM | 5.73 µM | 1180 nM | 3.62 µM | 1.9 µM | 4.2 µM | 1670 nM | 3.11 µM | 1.66 µM | 3.41 µM | 1.77 µM | 4.92 µM | 2.1 µM | 4.21 µM | 2170 | 4.79 µM | 1.29 µM | 2.66 | 1.78 µM | 5.24 µM
CCOC(=O)Cc1csc(NC(=O)COC(=O)c2ccc(OC)cc2)n1 | 407 nM | 2.63 µM | 64200 nM | > 100 µM | 52.9 µM | > 100 µM | > 100000 nM | > 100 µM | 35.7 µM | > 57.6 µM | > 100 µM | > 100 µM | 19.3 µM | 37.7 µM | > 96100 | > 100 µM | > 100 µM | > 100 | 47.5 µM | > 73.2 µM
CC1(C)[C@@H](OC(N)=O)C=C[C@]2(C=O)[C@H]3CC[C@]4(C)[C@@H](c5ccc(=O)oc5)[C@@H](Cl)C[C@]4(O)C3=CC[C@@H]12 | 5.58 nM | 0.0121 µM | 6.88 nM | 0.0287 µM | 0.00415 µM | 0.0102 µM | 8.1 nM | 0.0304 µM | 0.00478 µM | 0.0106 µM | 0.00609 µM | 0.0167 µM | 0.00442 µM | 0.00848 µM | 5.61 | 0.013 µM | 0.00458 µM | 0.00903 | 0.00517 µM | 0.0123 µM
CN1CCN(CCOc2ccc(-c3cnc4c(-c5ccc(F)cc5)cnn4c3)cc2)CC1 | 2090 nM | 4.47 µM | 1480 nM | 3.05 µM | 1.79 µM | 3.55 µM | 1770 nM | 3.45 µM | 1.73 µM | 3.2 µM | 2.2 µM | 4.88 µM | 1.27 µM | 2.57 µM | 1890 | 3.56 µM | 1.64 µM | 3.04 | 2.14 µM | 5.08 µM
Cn1ncc(-c2ccc3c(=O)[nH]nc(CN)c3c2)c1-c1c(F)cc2ccccc2c1C#N | 3420 nM | 18.2 µM | 1520 nM | 12.6 µM | 11.9 µM | 25.1 µM | 8630 nM | 20.8 µM | 5.21 µM | 18.9 µM | 12.7 µM | 50.5 µM | 7.6 µM | 20.8 µM | 3050 | 15.1 µM | 11 µM | 22.9 | 4.34 µM | 17.5 µM
OC(COc1cccc2ccccc12)CN1CCN(c2ccccc2Cl)CC1 (stereo not given) | 12700 nM | 44.2 µM | 14700 nM | 28.3 µM | 12.9 µM | 31.7 µM | 14800 nM | 29.3 µM | 15.6 µM | 30.4 µM | 13.2 µM | 28.6 µM | 16.5 µM | 32.8 µM | 10900 | 27.9 µM | 15.2 µM | 28.9 | 16.6 µM | 32.2 µM
O=C(Nc1cccc(C(F)(F)F)c1)c1cc(Br)cc(Br)c1O | – | 5 µM | – | > 10 µM | – | 8.06 µM | – | > 10 µM | – | > 10 µM | – | 6.78 µM | – | 9.15 µM | – | > 10 µM | – | 3.58 | – | > 10 µM
O=C1c2ccccc2-c2c1c1ccccc1c(=O)n2-c1ccccc1 | – | > 86.3 µM | – | > 100 µM | – | > 100 µM | – | > 100 µM | – | 10.6 µM | – | 40.8 µM | – | 12.3 µM | – | > 100 µM | – | 52 | – | 27.4 µM
COc1ccc2c(c1)CC[C@@H]1[C@@H]2CC[C@]2(C)C=C(/C=C/C(=O)c3ccccc3)C[C@@H]12 | 11200 nM | 32.4 µM | 18600 nM | 36.3 µM | 17.7 µM | 32.3 µM | 16200 nM | 31.2 µM | 15.5 µM | 29.1 µM | 17.6 µM | 35.1 µM | 17.4 µM | 32.4 µM | 15400 | 30.2 µM | 14 µM | 27.2 | 31.2 µM | > 100 µM
Oc1ccc(Cl)cc1-c1cc(-c2ccc(F)cc2)n[nH]1 | 3600 nM | 21.5 µM | 395 nM | 14.1 µM | 1.4 µM | 14 µM | 2080 nM | 5.95 µM | 1.82 µM | 3.41 µM | 2.19 µM | 6.98 µM | 2.1 µM | 4.51 µM | 2640 | 10.5 µM | 1.93 µM | 5.55 | 1.85 µM | 5.39 µM
